Data on two molecules can be found in article PMC3332334 (Biochemistry, 2012).

For this assay, the target named is PA1221 (Pseudomonas aeruginosa, UniProt Q9I4B7). Nature of the assay: […]-PPi exchange assay. Format: biochemical. Conditions: 2 mM ATP, 0.2 mM PPi, 1 mM MgCl2, pH 7.5, 37 °C.

Molecules are shown by their SMILES.

As for `CC[C@H](C)[C@H](N)C(=O)O` [I, Ile], for the setting “5 mM Ile”, the 32P-PPi exchange assay entry was “Ile, Leu, and Ala utilized as substrates at a lower rate”.
With `CC(C)[C@H](N)C(=O)O` [V, valine], the 32P-PPi exchange assay result (5 mM valine) was “Valine resulted in the highest activity”.
